Assay results reported in PubChem BioAssay (NCI).
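How tested: cells in 96-well plates exposed to compound for 48 hours at five concentrations. GI50 is the concentration that inhibits growth by half. At the TGI there is no net growth.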

Columns and labels:
Test in all cases: NCI anticancer screen, dose series, 48 h
[1] = test system: 786-0 renal
[2] = test system: A498 renal
[3] = test system: A549 NSCLC
[4] = test system: ACHN renal
[5] = test system: BT-549 breast
[6] = test system: CAKI-1 renal
[7] = test system: CCRF-CEM leukemia
[8] = test system: COLO 205 colon
[9] = test system: DU-145 prostate
[10] = test system: EKVX NSCLC
[11] = test system: HCC-2998 colon
[12] = test system: HCT-116 colon
[13] = test system: HCT-15 colon
[14] = test system: HL-60(TB) leukemia
[15] = test system: HOP-62 NSCLC
[16] = test system: HOP-92 NSCLC
[17] = test system: HS 578T breast
[18] = test system: HT29 colon
[19] = test system: IGROV1 ovarian
[20] = test system: K-562 leukemia
[21] = test system: KM12 colon
[22] = test system: LOX IMVI melanoma
[23] = test system: M14 melanoma
[24] = test system: MALME-3M melanoma
[25] = test system: MCF7 breast
[26] = test system: MDA-MB-231 breast
[27] = test system: MDA-MB-435
[28] = test system: MOLT-4 leukemia
[29] = test system: NCI-H226 lung
[30] = test system: NCI-H23 lung
[31] = test system: NCI-H460 lung
[32] = test system: NCI-H522 lung
[33] = test system: NCI/ADR-RES ovarian
[34] = test system: OVCAR-3 ovarian
[35] = test system: OVCAR-4 ovarian
[36] = test system: OVCAR-5 ovarian
[37] = test system: OVCAR-8 ovarian
[38] = test system: PC-3 prostate
[39] = test system: RPMI-8226 leukemia
[40] = test system: RXF 393 renal
[41] = test system: SF-268 CNS
[42] = test system: SF-295 CNS
[43] = test system: SF-539 CNS
[44] = test system: SK-MEL-2 melanoma
[45] = test system: SK-MEL-28 melanoma
[46] = test system: SK-MEL-5 melanoma
[47] = test system: SK-OV-3 ovarian
[48] = test system: SN12C renal
[49] = test system: SNB-19 CNS
[50] = test system: SNB-75 CNS
[51] = test system: SR leukemia
[52] = test system: SW-620 colon
[53] = test system: T-47D breast
[54] = test system: TK-10 renal
[55] = test system: U251 CNS
[56] = test system: UACC-257 melanoma
[57] = test system: UACC-62 melanoma
[58] = test system: UO-31 renal

COc1cc(O)c([C@@H]2C[C@H](CCc3ccc(O)cc3)O[C@H](c3ccc(O)cc3)C2)c(O)c1C(=O)/C=C/c1ccc(O)cc1
GI50 [1]: 2.28 µM | TGI [1]: 4.97 µM | GI50 [2]: 4.24 µM | TGI [2]: 11.3 µM | GI50 [3]: 3.33 µM | TGI [3]: 25.1 µM | GI50 [4]: 2.43 µM | TGI [4]: 6.01 µM | GI50 [5]: 2.39 µM | TGI [5]: 5.34 µM | GI50 [6]: 5.76 µM | TGI [6]: 18.3 µM | GI50 [7]: 2.32 µM | TGI [7]: 7.36 µM | GI50 [8]: 2.51 µM | TGI [8]: 5.4 µM | GI50 [9]: 3.15 µM | TGI [9]: 10.1 µM | GI50 [10]: 4.1 µM | TGI [10]: 16.7 µM | GI50 [11]: 0.558 µM | TGI [11]: 1.73 µM | GI50 [12]: 2.74 µM | TGI [12]: 8.27 µM | GI50 [13]: 2.45 µM | TGI [13]: 6.88 µM | GI50 [14]: 2.13 µM | TGI [14]: 5.2 µM | GI50 [15]: 2.77 µM | TGI [15]: 6.02 µM | GI50 [16]: 2.2 µM | TGI [16]: 4.96 µM | GI50 [17]: 2.53 µM | TGI [17]: 15.4 µM | GI50 [18]: 3.31 µM | TGI [18]: 10.2 µM | GI50 [19]: 2.2 µM | TGI [19]: 5.44 µM | GI50 [20]: 2.32 µM | TGI [20]: 6.24 µM | GI50 [21]: 9.83 µM | TGI [21]: > 35 µM | GI50 [22]: 1.93 µM | TGI [22]: 3.63 µM | GI50 [23]: 3.24 µM | TGI [23]: 9.3 µM | GI50 [24]: 3.39 µM | TGI [24]: > 30.8 µM | GI50 [25]: 1.96 µM | TGI [25]: 4.61 µM | GI50 [26]: 2.5 µM | TGI [26]: 6.23 µM | GI50 [27]: 3.14 µM | TGI [27]: 10.8 µM | GI50 [28]: 1.44 µM | TGI [28]: 4.24 µM | GI50 [29]: 7.04 µM | TGI [29]: 21.5 µM | GI50 [30]: 2.57 µM | TGI [30]: 5.71 µM | GI50 [31]: 2.71 µM | TGI [31]: 7.49 µM | GI50 [32]: 2.73 µM | TGI [32]: 8.52 µM | GI50 [33]: 5.53 µM | TGI [33]: 25.5 µM | GI50 [34]: 2.69 µM | TGI [34]: 7.16 µM | GI50 [35]: 3.8 µM | TGI [35]: 29.5 µM | GI50 [36]: 3.81 µM | TGI [36]: 12.5 µM | GI50 [37]: 3.17 µM | TGI [37]: 10.5 µM | GI50 [38]: 2.45 µM | TGI [38]: 6.94 µM | GI50 [39]: 2.11 µM | TGI [39]: 4.68 µM | GI50 [40]: 2.48 µM | TGI [40]: 5.64 µM | GI50 [41]: 2.86 µM | TGI [41]: 24.4 µM | GI50 [42]: 3.83 µM | TGI [42]: 17.9 µM | GI50 [43]: 2.23 µM | TGI [43]: 4.98 µM | GI50 [44]: 2.38 µM | TGI [44]: 6.86 µM | GI50 [45]: 3.28 µM | TGI [45]: 12 µM | GI50 [46]: 2.11 µM | TGI [46]: 6.05 µM | GI50 [47]: 2.74 µM | TGI [47]: 6.11 µM | GI50 [48]: 3.23 µM | TGI [48]: 13.8 µM | GI50 [49]: 3.37 µM | TGI [49]: 10.6 µM | GI50 [50]: 2.86 µM | TGI [50]: 8.22 µM | GI50 [51]: 2.42 µM | TGI [51]: 4.8 µM | GI50 [52]: 2.24 µM | TGI [52]: 6.12 µM | GI50 [53]: 2.93 µM | TGI [53]: 9.77 µM | GI50 [54]: 3.94 µM | TGI [54]: 13.5 µM | GI50 [55]: 2.81 µM | TGI [55]: 9.22 µM | GI50 [56]: 3.82 µM | TGI [56]: 13.2 µM | GI50 [57]: 2.38 µM | TGI [57]: 5.92 µM | GI50 [58]: 2.9 µM | TGI [58]: 7.96 µM
